Values belong to the compound of their own block, whether it stands above or below them.
What was measured:
[1] = target: T1, Alpha-ketoglutarate-dependent dioxygenase FTO (Homo sapiens, UniProt Q9C0B1); assay: Inhibition of His-tagged N-terminal FTO (unknown origin)
[2] = target: T1, Alpha-ketoglutarate-dependent dioxygenase FTO; assay: Binding affinity to GFP-tagged FTO (unknown origin) assessed as dissociation constant by microscale thermophoresis analysis
[3] = target: T1, Alpha-ketoglutarate-dependent dioxygenase FTO; assay: Binding affinity to GFP-tagged FTO (unknown origin) assessed as dissociation constant by SPR analysis
[4] = Binding affinity to GFP-tagged FTO Arg96 mutant (unknown origin) assessed as dissociation constant by microscale thermophoresis analysis
[5] = Binding affinity to GFP-tagged FTO Tyr108 mutant (unknown origin) assessed as dissociation constant by microscale thermophoresis analysis
[6] = Binding affinity to GFP-tagged FTO (Ser229) mutant (unknown origin) assessed as dissociation constant by microscale thermophoresis analysis
[7] = Binding affinity to GFP-tagged FTO Asp233 mutant (unknown origin) assessed as dissociation constant by microscale thermophoresis analysis
[8] = Binding affinity to GFP-tagged FTO Glu234 mutant (unknown origin) assessed as dissociation constant by microscale thermophoresis analysis
Cytochrome P450 2C9 [9] = target: T2, Cytochrome P450 2C9 (Homo sapiens, UniProt P11712); assay: Inhibition of recombinant CYP2C9 in human liver microsome by Liquid chromatography-tandem mass spectrometric analysis
Cytochrome P450 2C19 = Cytochrome P450 2C19 (Homo sapiens, UniProt P33261); assay: Inhibition of recombinant CYP2C19 in human liver microsome by Liquid chromatography-tandem mass spectrometric analysis
Cytochrome P450 2D6 = Cytochrome P450 2D6 (Homo sapiens, UniProt P10635); assay: Inhibition of recombinant CYP2D6 in human liver microsome by Liquid chromatography-tandem mass spectrometric analysis
CYP3A4/5 = CYP3A4/5 (Homo sapiens, UniProt P08684+P20815); assay: Inhibition of recombinant CYP3A4/5 in human liver microsome by Liquid chromatography-tandem mass spectrometric analysis; settings: recombinant CYP3A4/5 in human liver microsomes
[10] = Half-life in male Sprague-Dawley rat at 10 mg/kg, po measured up to 24 hrs by HPLC analysis; settings: in vivo
[11] = MRT in male Sprague-Dawley rat at 10 mg/kg, po measured up to 24 hrs by HPLC analysis; settings: in vivo
[12] = Half-life in male Sprague-Dawley rat at 5 mg/kg, iv measured up to 8 hrs by HPLC analysis; settings: in vivo
[13] = MRT in male Sprague-Dawley rat at 5 mg/kg, iv measured up to 8 hrs by HPLC analysis; settings: in vivo
in vivo [14] = settings: male, Sprague-Dawley, rat, po, 10 mg/kg
Description: Tmax in male Sprague-Dawley rat at 10 mg/kg, po measured up to 24 hrs by HPLC analysis

in vivo [15] = settings: male, Sprague-Dawley, rat, po, 10 mg/kg; remark: listed apart in the source
Description: Cmax in male Sprague-Dawley rat at 10 mg/kg, po measured up to 24 hrs by HPLC analysis

in vivo [16] = settings: male, Sprague-Dawley, rat, po, 10 mg/kg; remark: listed apart in the source
Description: AUC (0 to infinity) in male Sprague-Dawley rat at 10 mg/kg, po measured up to 24 hrs by HPLC analysis

in vivo [17] = settings: male, Sprague-Dawley, rat, po, 10 mg/kg; remark: listed apart in the source
Description: Oral bioavailability in male Sprague-Dawley rat at 10 mg/kg measured up to 24 hrs by HPLC analysis

in vivo [18] = settings: male, Sprague-Dawley, rat, iv, 5 mg/kg
Description: Cmax in male Sprague-Dawley rat at 5 mg/kg, iv measured up to 8 hrs by HPLC analysis

in vivo [19] = settings: male, Sprague-Dawley, rat, iv, 5 mg/kg; remark: listed apart in the source
Description: AUC (0 to infinity) in male Sprague-Dawley rat at 5 mg/kg, iv measured up to 8 hrs by HPLC analysis

in vitro [20] = settings: human, liver microsomes
Description: Metabolic stability in human liver microsome assessed as half-life at 1 uM by HPLC analysis

in vitro [21] = settings: rat, liver microsomes
Description: Metabolic stability in rat liver microsome assessed as half-life at 1 uM by HPLC analysis

in vitro [22] = settings: human, liver microsomes; remark: listed apart in the source
Description: Metabolic stability in human liver microsomes assessed as intrinsic clearance per mg protein at 1 uM by HPLC analysis

in vitro [23] = settings: rat, liver microsomes; remark: listed apart in the source
Description: Metabolic stability in rat liver microsomes assessed as intrinsic clearance per mg protein at 1 uM by HPLC analysis

in vitro [24] = settings: human, liver microsomes; remark: listed apart in the source
Description: Metabolic stability in human liver microsomes assessed as hepatic clearance at 1 uM by HPLC analysis

in vitro [25] = settings: rat, liver microsomes; remark: listed apart in the source
Description: Metabolic stability in rat liver microsomes assessed as hepatic clearance at 1 uM by HPLC analysis

Cytochrome P450 2C9 [26] = target: T2, Cytochrome P450 2C9; assay: Inhibition of CYP2C9 in human liver microsome by Liquid chromatography-tandem mass spectrometric analysis

T1 sequence (Q9C0B1 whole entry): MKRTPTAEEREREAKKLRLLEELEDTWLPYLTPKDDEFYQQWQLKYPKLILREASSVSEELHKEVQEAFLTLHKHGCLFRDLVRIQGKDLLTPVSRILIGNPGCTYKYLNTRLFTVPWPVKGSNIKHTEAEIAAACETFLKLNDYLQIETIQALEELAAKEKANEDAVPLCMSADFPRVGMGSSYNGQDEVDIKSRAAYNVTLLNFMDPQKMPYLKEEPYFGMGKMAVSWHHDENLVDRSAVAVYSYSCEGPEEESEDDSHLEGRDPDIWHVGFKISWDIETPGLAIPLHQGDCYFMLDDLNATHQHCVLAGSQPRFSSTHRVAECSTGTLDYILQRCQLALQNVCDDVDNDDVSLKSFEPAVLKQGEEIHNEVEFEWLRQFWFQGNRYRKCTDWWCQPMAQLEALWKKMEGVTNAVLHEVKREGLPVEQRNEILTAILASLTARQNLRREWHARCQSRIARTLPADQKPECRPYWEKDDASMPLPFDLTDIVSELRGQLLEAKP
T2 sequence (P11712 whole entry): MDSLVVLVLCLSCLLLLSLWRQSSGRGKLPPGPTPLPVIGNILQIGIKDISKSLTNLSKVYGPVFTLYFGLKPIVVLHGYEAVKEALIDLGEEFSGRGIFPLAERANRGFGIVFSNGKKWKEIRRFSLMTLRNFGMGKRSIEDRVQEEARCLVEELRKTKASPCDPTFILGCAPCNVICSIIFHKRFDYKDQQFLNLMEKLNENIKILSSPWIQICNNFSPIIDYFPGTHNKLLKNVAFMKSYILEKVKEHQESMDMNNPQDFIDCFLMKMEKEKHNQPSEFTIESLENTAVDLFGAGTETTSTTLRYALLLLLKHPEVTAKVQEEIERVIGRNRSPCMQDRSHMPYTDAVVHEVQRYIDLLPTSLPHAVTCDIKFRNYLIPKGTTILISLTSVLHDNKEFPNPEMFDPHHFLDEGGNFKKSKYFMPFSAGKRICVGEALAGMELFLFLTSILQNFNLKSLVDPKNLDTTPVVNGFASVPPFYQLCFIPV
Sequence of Cytochrome P450 2C19 (P33261 whole entry): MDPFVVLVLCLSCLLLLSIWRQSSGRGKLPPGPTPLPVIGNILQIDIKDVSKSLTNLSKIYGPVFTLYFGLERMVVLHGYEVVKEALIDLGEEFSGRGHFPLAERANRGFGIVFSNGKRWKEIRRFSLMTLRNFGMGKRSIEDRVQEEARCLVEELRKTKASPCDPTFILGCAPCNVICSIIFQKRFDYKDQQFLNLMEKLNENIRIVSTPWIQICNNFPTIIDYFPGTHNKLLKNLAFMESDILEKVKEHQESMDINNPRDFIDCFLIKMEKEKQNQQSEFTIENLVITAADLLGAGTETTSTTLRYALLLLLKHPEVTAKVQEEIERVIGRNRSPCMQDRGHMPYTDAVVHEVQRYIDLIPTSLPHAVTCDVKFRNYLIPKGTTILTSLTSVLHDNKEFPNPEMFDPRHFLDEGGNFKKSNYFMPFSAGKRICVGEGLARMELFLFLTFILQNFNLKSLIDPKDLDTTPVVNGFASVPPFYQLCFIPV
Sequence of Cytochrome P450 2D6 (P10635 whole entry): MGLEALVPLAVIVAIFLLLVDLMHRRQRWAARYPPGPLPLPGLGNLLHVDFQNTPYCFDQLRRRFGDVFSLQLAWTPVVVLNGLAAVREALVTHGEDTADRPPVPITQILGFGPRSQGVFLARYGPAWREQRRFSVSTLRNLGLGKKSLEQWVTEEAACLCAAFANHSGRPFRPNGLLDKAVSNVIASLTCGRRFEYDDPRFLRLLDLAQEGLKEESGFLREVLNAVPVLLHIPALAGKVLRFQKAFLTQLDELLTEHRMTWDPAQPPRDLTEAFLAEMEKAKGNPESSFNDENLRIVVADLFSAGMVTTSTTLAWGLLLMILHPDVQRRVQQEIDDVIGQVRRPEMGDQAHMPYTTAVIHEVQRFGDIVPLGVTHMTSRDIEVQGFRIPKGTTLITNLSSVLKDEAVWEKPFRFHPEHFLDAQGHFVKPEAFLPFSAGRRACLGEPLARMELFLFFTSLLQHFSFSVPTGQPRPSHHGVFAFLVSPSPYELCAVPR

Structure (SMILES): O=c1cc(-c2ccccc2)oc2cc(O)ccc12 [7-HYDROXYFLAVONE]
- IC50 [1]: 17.9 µM

Structure (SMILES): CCN(CC)C(=O)/C(C#N)=C/c1cc(O)c(O)c([N+](=O)[O-])c1 [ENTACAPONE]
- IC50 (Cytochrome P450 2C9 [26]): 4 µM

Structure (SMILES): O=c1cc(-c2ccccc2)oc2ccc(O)cc12 [6-HYDROXYFLAVONE]
- IC50 [1]: 17.8 µM

Structure (SMILES): O=c1cc(-c2ccccc2)oc2cc(O)c(O)c(O)c12 [BAICALEIN]
- IC50 [1]: 17.1 µM

Structure (SMILES): O=c1cc(-c2ccc(O)c(O)c2)oc2cc(O)cc(O)c12 [LUTEOLIN]
- IC50 [1]: 7.5 µM

Structure (SMILES): COc1ccc(-c2oc3cc(O)cc(O)c3c(=O)c2O)cc1 [KAEMPFERIDE]
- IC50 [1]: 18.2 µM

Structure (SMILES): O=c1c(O)c(-c2ccc(O)c(O)c2)oc2cc(O)cc(O)c12 [QUERCETIN]
- IC50 [1]: 9.5 µM

Structure (SMILES): O=c1ccoc2ccccc12 [CHROMONE]
- IC50 [1]: 89.8 µM

Structure (SMILES): O=c1cc(-c2ccc(O)cc2)oc2cc(O)c(O)c(O)c12 [SCUTELLAREIN]
- IC50 [1]: 15.6 µM

Structure (SMILES): O=c1ccoc2cc(O)ccc12
- IC50 [1]: 16.2 µM

Structure (SMILES): O=c1c(O)c(-c2ccc(O)cc2)oc2ccccc12
- IC50 [1]: 18.5 µM

Structure (SMILES): O=c1c(O)c(-c2ccc(O)cc2)oc2cc(O)cc(O)c12 [KAEMPFEROL]
- IC50 [1]: 17.6 µM

Structure (SMILES): O=c1cc(-c2ccccc2)oc2cccc(O)c12 [5-HYDROXYFLAVONE]
- IC50 [1]: 19.2 µM

Structure (SMILES): O=c1c(O)c(-c2ccc(O)cc2O)oc2cc(O)cc(O)c12 [MORIN]
- IC50 [1]: 13.9 µM

Structure (SMILES): O=c1c(O)c(-c2ccccc2)oc2cc(O)cc(O)c12 [GALANGIN]
- IC50 [1]: 19.1 µM

The remaining lines, values ahead:

- IC50 [1]: 13.9 µM
Structure (SMILES): O=c1cc(-c2cc(O)c(O)c(O)c2)oc2ccccc12

- IC50 [1]: 5.7 µM
Structure (SMILES): O=c1cc(-c2ccc(O)c(O)c2)oc2ccccc12

- Kd [2]: 2.8 µM
- IC50 [1]: 3.5 µM
- Kd [3]: 3.24 µM
- Kd [4]: 257 µM
- Kd [5]: 47.6 µM
- Kd [6]: 170 µM
- Kd [7]: 109 µM
- Kd [8]: 186 µM
- IC50 (Cytochrome P450 2C9 [9]): > 50 µM
- IC50 (Cytochrome P450 2C19): 44 µM
- IC50 (Cytochrome P450 2D6): > 50 µM
- IC50 (CYP3A4/5): > 50 µM
- half-life at 24 h [10]: 3.35 h
- MRT at 24 h [11]: 1.89 h
- half-life at 8 h [12]: 1.63 h
- MRT at 8 h [13]: 0.828 h
- Tmax at 24 h (in vivo [14]): 0.5 h
- Cmax at 24 h (in vivo [15]): 472 ng/mL
- AUC(0-inf) at 24 h (in vivo [16]): 559 ng·h/mL
- bioavailability at 24 h (in vivo [17]): 29.9%
- Cmax at 8 h (in vivo [18]): 1830 ng/mL
- AUC(0-inf) at 8 h (in vivo [19]): 932 ng·h/mL
- half-life at 1 µM (in vitro [20]): > 3.11 h
- half-life at 1 µM (in vitro [21]): 0.345 h
- microsomal CLint at 1 µM (in vitro [22]): < 7.4 µL/min/mg
- microsomal CLint at 1 µM (in vitro [23]): 67.2 µL/min/mg
- CLhep predicted at 1 µM (in vitro [24]): < 6.1 mL/min/kg
- CLhep predicted at 1 µM (in vitro [25]): 37.9 mL/min/kg
Structure (SMILES): O=C1C[C@@H](c2ccc(O)c(O)c2)Oc2cc(O)cc(O)c21 [ERIODICTYOL]

- IC50 [1]: 9.2 µM
Structure (SMILES): O=c1c(O)c(-c2ccc(O)c(O)c2)oc2cc(O)ccc12 [FISETIN]

- IC50 [1]: 12.1 µM
Structure (SMILES): O=c1cc(-c2ccc(O)cc2)oc2cc(O)cc(O)c12 [APIGENIN]

- IC50 [1]: 7.7 µM
Structure (SMILES): O=c1cc(-c2cc(O)c(O)c(O)c2)oc2cc(O)cc(O)c12 [TRICETIN]

- Kd [2]: 34 µM
- IC50 [1]: 9.6 µM
Structure (SMILES): O=c1c(O)c(-c2cc(O)c(O)c(O)c2)oc2cc(O)cc(O)c12 [MYRICETIN]
